Tests used:
fetal hemoglobin protein = test: HbF HPLC Cell Culture Assay; assay type: cell-based; settings: for EC50: 336 h, HbF induction, Day 14 of culture; for Hemoglobin HPLC Ymax obs (%): relative to a control compound
Procedure, shortened: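 Cells were expanded in SFEM with CC100 and TPO, then differentiated through three erythroid media phases (EPO 2.5 U/ml, holo-transferrin, insulin, plus SCF, and IL-3 in phase 1). Compound was re-added at each passage (treatment day, days 0, 3, 5, 7, 10, 12). Fetal hemoglobin was quantified by HPLC on pellets from terminal day 14.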

[1] = target: DCN2 (DCUND2) protein PONY domain (Homo sapiens (Human), UniProt Q6PH85); test: Measurement of Kinact/KI in the DCN2 TR-FRET Assay; assay type: binding; settings: for kinact/KI: read-out: Kinact/KI (converted); for Ki / kinact: time-dependent IC50 over 24 hrs; for kinact: read-out: Kinact (converted)
Description: A TR-FRET Assay was performed to evaluate the ability of the compounds to bind DCN-2.
The time resolved—Forster's resonance energy transfer (TR-FRET) assay was designed following the protocol established in (Scott et al., Nat Chem Biol. 2017 August; 13(8): 850-857). A recombinant form of the DCN2 (DCUND2) protein PONY domain was produced using an E. coli expression system at Viva Biotech China. The DCN2 protein was biotinylated (EZ sulfo-NHS-LC-biotin; Thermofisher) for labeling with 2.5 nM streptavidin terbium (Tb) cryptate in the reaction. The probe was changed to a non-covalent DCN1 inhibitor labeled with carboxyfluorescein (FAM; Zhou et al, Nat Commun. 2017; 8: 1150). Buffer conditions were modified to enhance protein stability by replacing TritonX with 0.05% Tween20 and increasing NaCl to 200 mM. The compounds were screened against 0.31 nM DCN1 and 40 nM FAM-labeled probe in a 40 ul reaction volume. The TR-FRET ratio between Tb-DCN1 and the FAM-labeled probe was measured in a 384-well opti-plate (Perkin Elmer) using a plate reader (BMG) at after treatment with compound (final DMSO concentration of 0.1%). The ratio was normalized to the high (DCN1 and FAM-probe) and low (DCN1 and no probe) controls for a readout of % activity (=100*(x−low)/(high−low)).
The Kinact and KI measurements were taken to allow for continuous reads over 24 hrs. Plates were read every 5 min up to 1 hr, every 15 min up to 5 hr, and every hour up to […]. Kinact and KI were calculated based on the following equations (Krippendorff B F, et al. Mechanism-based inhibition: deriving K(I) and k(inact) directly from time-dependent IC(50) values. J BiomolScreen. 2009; Mons E et al. A Comprehensive Guide for Assessing Covalent Inhibition in Enzymatic Assays Illustrated with Kinetic Simulations. CurrProtoc. 2022) where the KM of the probe against DCN2 is 21.62 nM. The Kinact and KI values could be estimated from the tight curves of the IC50 values over time.

Sequence of DCN2 (DCUND2) protein PONY domain (Q6PH85 60-248): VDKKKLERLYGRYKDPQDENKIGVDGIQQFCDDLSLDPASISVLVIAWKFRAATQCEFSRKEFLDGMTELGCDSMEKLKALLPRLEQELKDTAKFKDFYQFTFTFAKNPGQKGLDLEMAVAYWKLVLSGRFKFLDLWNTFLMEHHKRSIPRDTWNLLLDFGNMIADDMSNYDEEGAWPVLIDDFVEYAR

SMILES	EC50 (fetal hemoglobin protein) [µM]	Hemoglobin HPLC Ymax obs (%) (fetal hemoglobin protein)	kinact/KI [1] [M⁻¹ s⁻¹]	Ki [1] [µM]	kinact [1] [s⁻¹]
CCN1C(=O)[C@@H](NC(=O)c2cccc(C(F)(F)F)c2)[C@@H](c2ccc(F)cc2)c2c([C@@H](C)NC#N)nn(-c3ccccc3)c21 [Compound I-73, N-((4S,5S)-3-((R)-1-cyanamidoethyl)-7-ethyl-4-(4-fluorophenyl)-6-oxo-1-phenyl-4,5,6,7-tetrahydro-1H-pyrazolo[3,4-b]pyridin-5-yl)-3-(trifluoromethyl)benzamide]	> 0.2	++ (Hemoglobin HPLC Ymax greater than 65.0 and less than or equal to 100.0)	83300	0.0464	0.00384
CCN1C(=O)[C@@H](NC(=O)c2cccc(C(F)(F)F)c2)[C@@H](C2CC2)c2c(C(=O)N3[C@H](C#N)C[C@H]4C[C@H]43)nn(C3CCOCC3)c21 [Compound I-256, N-((4S,5S)-3-((1R,3S,5R)-3-cyano-2-azabicyclo[3.1.0]hexane-2-carbonyl)-4-cyclopropyl-7-ethyl-6-oxo-1-(tetrahydro-2H-pyran-4-yl)-4,5,6,7-tetrahydro-1H-pyrazolo[3,4-b]pyridin-5-yl)-3-(trifluoromethyl)benzamide]	0.05 to 0.2	++ (Hemoglobin HPLC Ymax greater than 65.0 and less than or equal to 100.0)	78300	0.0994	0.00783
CCN1C(=O)[C@@H](NC(=O)c2cccc(C(F)(F)F)c2)[C@@H](c2ccc(F)cc2)c2c(C(=O)N3CCC[C@H]3C#N)nn(C3CCOCC3)c21 [Compound I-350]	≤ 0.05	++ (Hemoglobin HPLC Ymax greater than 65.0 and less than or equal to 100.0)	45000	0.0929	0.00417
CCN1C(=O)[C@@H](NC(=O)c2cccc(C(F)(F)F)c2)[C@@H](c2ccc(F)cc2)c2c(C(=O)N(C)[C@@H](C#N)CCN(C)C)nn(C3CCOCC3)c21 [Compound I-369]	–	–	11700	0.002	2.17e-05
CCN1C(=O)[C@@H](NC(=O)c2cccc(C(F)(F)F)c2)[C@@H](c2ccc(F)cc2)c2c(C(=O)N(C)[C@H](C#N)CCN(C)C)nn(C3CCOCC3)c21 [Compound I-370]	–	–	107000	0.000488	5.17e-05
CCN1C(=O)[C@@H](NC(=O)c2cccc(C(F)(F)F)c2)[C@@H](C2CC2)c2c(C(=O)N3C[C@H](F)C[C@H]3C#N)nn(C3CCOCC3)c21 [Compound I-372]	0.05 to 0.2	++ (Hemoglobin HPLC Ymax greater than 65.0 and less than or equal to 100.0)	13300	0.229	0.00313
CCN1C(=O)[C@@H](NC(=O)c2cccc(C(F)(F)F)c2)[C@@H](C2CC2)c2c(C(=O)N3C[C@H](OC)C[C@H]3C#N)nn(C3CCOCC3)c21 [Compound I-377]	0.05 to 0.2	++ (Hemoglobin HPLC Ymax greater than 65.0 and less than or equal to 100.0)	21700	0.161	0.00354
CCN1C(=O)[C@@H](NC(=O)c2cccc(C(F)(F)F)c2)[C@@H](C2CC2)c2c(C(=O)N3CCNC[C@H]3C#N)nn(-c3ccccc3)c21 [Compound I-383]	–	–	48300	0.0958	0.00465
CCN1C(=O)[C@@H](NC(=O)c2cccc(C(F)(F)F)c2)[C@@H](C)c2c(C(=O)N3[C@H](C#N)C[C@H]4C[C@H]43)nn(C3CCOCC3)c21 [Compound I-387]	–	–	46700	0.157	0.00727
CCc1cccc(C(=O)N[C@@H]2C(=O)N(CC)c3c(c(C(=O)N4[C@H](C#N)C[C@H]5C[C@H]54)nn3C3CCOCC3)[C@@H]2C2CC2)c1 [Compound I-552, N-((4S,5S)-3-((1R,3S,5R)-3-cyano-2-azabicyclo[3.1.0]hexane-2-carbonyl)-4-cyclopropyl-7-ethyl-6-oxo-1-(tetrahydro-2H-pyran-4-yl)-4,5,6,7-tetrahydro-1H-pyrazolo[3,4-b]pyridin-5-yl)-3-ethylbenzamide]	–	–	333000	0.017	0.00566
